Source: patent US20080166323A1, “Activators of Hexosamine Biosynthesis as Inhibitors of Injury Induced by Ischemia or Hermorrhagic Shock” (UAB RESEARCH FOUNDATION, priority 2004, published 2008)

Tested on: rat model of trauma-hemorrhage and resuscitation
Assay: soft tissue trauma-hemorrhage (T-H) and resuscitation, Example 1 (glucosamine before hemorrhage and during resuscitation)
Format: in vivo
Protocol: The following experiments were conducted using a model of soft tissue trauma-hemorrhage (T-H) as described in Ba, et al., Crit. Care Med (2000) 28(8):2837-2842; Chaudry, et al., Can J Physiol Pharmacol (1975) 53(5):859-865; Ma, et al., Am J Physiol Gastrointest Liver Physiol (2003) 284(1):G107-G115; and Harkema and Chaudry, Crit. Care Med (1992) 20(2):263-275. Male rats were fasted for 16 h and divided into three groups: (1) sham (trauma only); (2) T-H (trauma with subsequent hemorrhage and resuscitation); and (3) G-T-H (trauma with subsequent hemorrhage and resuscitation in the presence of glucosamine). All groups underwent a 5 cm ventral midline laparotomy to induce soft-tissue trauma and were cannulated in both femoral arteries and the right femoral vein. The T-H and G-T-H groups received an infusion of 3 mls over 30 minutes of Ringer's lactate (RL) containing, in the G-T-H group only, 10 mM glucosamine. These two groups were then bled to a mean arterial pressure of 40 mm Hg within 10 minutes and maintained at that pressure for 80 minutes. The T-H group was then infused with 1 ml RL over 10 minutes, while in the G-T-H group the infusate contained an iso-osmotic solution of 75 mM glucosamine (pH 7.4) in 50% RL. The two groups were then resuscitated with four times the maximum hemorrhage volume over a period of 60 minutes with RL (T-H) or RL containing 10 mM glucosamine (G-T-H). Sham-operated animals underwent the same surgical procedure but were neither bled nor resuscitated. Two hours post-resuscitation, a catheter was inserted into the left ventricle via the right carotid artery. Organ blood flows were determined using radioactive microspheres. Cardiac function and blood parameters were also assessed. The data for these experiments are shown in Tables 1 and 2 (values are mean ±standard error of the mean).

[1] = rat, G-T-H (n = 3), 2 h after T-H, glucosamine before hemorrhage and in resuscitation, mean ± SEM
[2] = rat, G-T-H, 2 h after T-H and resuscitation, Example 1, mean ± SEM

N[C@H]1C(O)O[C@H](CO)[C@@H](O)[C@@H]1O (some centres unmarked) [glucosamine]
Hepatic blood flow, change (G-T-H group, Example 1): improved
Total peripheral resistance, change (G-T-H group, Example 1): decreased
+dp/dt relative to the T-H group (G-T-H vs T-H group, Example 1): markedly improved
Cardiac output improvement over the T-H group (G-T-H vs T-H group, Example 1): more than two-fold
oxygen consumption relative to the T-H group (G-T-H vs T-H group, Example 1): more than doubled
oxygen delivery relative to the T-H group (G-T-H vs T-H group, Example 1): more than doubled
−dp/dt relative to the T-H group (G-T-H vs T-H group, Example 1): markedly improved
Cardiac output improvement over the sham group (G-T-H vs sham group, Example 1): more than 50%
+dp/dt [1]: 14,400 ± 900 mm Hg/sec
Cardiac Output [1]: 40.5 ± 0.4 ml/min 100 g body wt
Heart Rate [1]: 371 ± 15 beat/minute
Mean Arterial Pressure [1]: 104 ± 3 mm Hg
Oxygen Consumption [1]: 1.32 ± 0.15 ml/min 100 g body wt
Oxygen Delivery [1]: 3.3 ± 0.1 ml/min 100 g body wt
Oxygen Extraction [1]: 42.0 ± 5.4%
Stroke volume [1]: 109.7 ± 5.7 μl/beat/100 g body wt
Total Peripheral Resistance [1]: 2.58 ± 0.10 mm Hg/ml/min/100 g body wt
−dp/dt [1]: 8,700 ± 600 mm Hg/sec
Regional Blood Flow: Brain [2]: 103 ± 11 ml/min/100 g tissue
Regional Blood Flow: Cardiac [2]: 1,320 ± 170 ml/min/100 g tissue
Regional Blood Flow: Cecum [2]: 118 ± 29 ml/min/100 g tissue
Regional Blood Flow: Gastric [2]: 78.3 ± 5.1 ml/min/100 g tissue
Regional Blood Flow: Hepatic Artery [2]: 18.5 ± 6.0 ml/min/100 g tissue
Regional Blood Flow: Large Intestine [2]: 101 ± 18 ml/min/100 g tissue
Regional Blood Flow: Lung [2]: 74.2 ± 18.1 ml/min/100 g tissue
Regional Blood Flow: Mesenteric [2]: 29.2 ± 5.0 ml/min/100 g tissue
Regional Blood Flow: Muscle [2]: 6.45 ± 1.69 ml/min/100 g tissue
Regional Blood Flow: Pancreatic [2]: 56 ± 4 ml/min/100 g tissue
Regional Blood Flow: Portal Vein [2]: 187 ± 14 ml/min/100 g tissue
Regional Blood Flow: Renal [2]: 374 ± 13 ml/min/100 g tissue
Regional Blood Flow: Skin [2]: 53.9 ± 5.7 ml/min/100 g tissue
Regional Blood Flow: Small Intestine [2]: 240 ± 24 ml/min/100 g tissue
Regional Blood Flow: Splenic [2]: 46 ± 20 ml/min/100 g tissue
Regional Blood Flow: Thymus [2]: 47.8 ± 10.5 ml/min/100 g tissue
Regional Blood Flow: Total Hepatic [2]: 202 ± 20 ml/min/100 g tissue
